Data: patent publication US8642622B2, “Piperidinyl compound as a modulator of chemokine receptor activity” (Bristol-Myers Squibb Company, priority 2010, dated 2014)

Target: T1, Human PXR (Homo sapiens, UniProt O75469)
T1 construct: expressed in transfected cells; host or cells: HepG2
T1 sequence (O75469 1-434): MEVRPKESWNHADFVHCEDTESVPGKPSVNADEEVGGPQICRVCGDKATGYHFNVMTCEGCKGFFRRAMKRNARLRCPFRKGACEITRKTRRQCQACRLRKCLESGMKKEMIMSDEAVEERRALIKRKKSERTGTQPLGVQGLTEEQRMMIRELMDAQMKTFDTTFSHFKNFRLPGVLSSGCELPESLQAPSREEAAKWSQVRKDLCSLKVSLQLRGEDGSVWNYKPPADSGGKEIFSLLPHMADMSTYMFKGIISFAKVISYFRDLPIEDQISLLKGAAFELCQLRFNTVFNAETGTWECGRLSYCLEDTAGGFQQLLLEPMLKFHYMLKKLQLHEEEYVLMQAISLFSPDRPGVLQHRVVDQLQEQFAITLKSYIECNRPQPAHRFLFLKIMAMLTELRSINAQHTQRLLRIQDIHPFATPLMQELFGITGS
Test: PXR transactivation assay (HepG2, CYP3A-Luc reporter)
Type: cell-based
Description: The cell culture medium used is DMEM. […] Charcoal/dextran treated fetal bovine serum (FBS) was purchased from Hyclone (Logan, Utah). HepG2 cells were obtained from ATCC (Manassas, Va.). Human PXR-pcDNA3 and luciferase reporter containing CYP3A4 promoter, CYP3A-Luc, were generated at Bristol-Myers Squibb. White tissue culture (TC)-surface 384-well plates were purchased from Perkin Elmer (Boston, Mass.). Luciferase substrate (Steady-Glo) was purchased from Promega (Madison, Wis.). Control compounds rifampicin, mifepristone, and sulfinpyrazone were purchased from Sigma (St. Louis, Mo.).
Culture of HepG2 cells is performed in T175 flasks using DMEM containing 10% FBS. The transfection mixture contains 1 μg/mL of PXR-pcDNA3 plasmid DNA, 20 μg/ml of Cyp3A-Luc plasmid DNA, 90 μL/mL of Lipofectamine 2000, and serum-free medium. After incubating at room temperature for 20 minutes, the transfection mixture (1 ml per flask) is applied to the cells in fresh medium (20 mL per flask), and flasks incubated at 37° C. (5% CO2) overnight.
The flasks are then tapped vigorously to break up cell aggregates. After the addition of 8 mL of DMEM containing 5% charcoal/dextran-treated FBS, the entire mixture is transferred to conical tubes. Cells are then centrifuged at 1000 rpm for 5 minutes. Cell pellets are resuspended to a final count of ˜7×10^6 cells/mL in freezing media (DMEM containing 20% serum and 10% DMSO). The cell suspension is aliquoted into 15-mL polypropylene tubes, 5 mL per tube. Cells are slowly frozen by placing in a Styrofoam-insulated container at −80° C. overnight. Vials are transferred to an Ultracold (−140° C.) freezer after 24 hours for long-term storage.
Vials of cryopreserved cells are thawed rapidly in a warm water bath for five minutes. Cells are pooled and diluted to 50 mL in a 50-mL conical vial. The thawed cells are centrifuged at 1500 rpm for 5 minutes to collect the cells and the supernatant discarded. Cells are then resuspended in fresh Media II (DMEM containing 5% charcoal/dextran-treated FBS, 1% Penicillin/Streptomycin, 100 μM Non-essential Amino Acids, 1 mM Sodium Pyruvate, and 2 mM L-Glutamine), counted using the Guava Cell Counter, and diluted to 1.6×10^5 cells/ml in the same media.
Fifty microliters of cell mixture is added to wells in columns 1-23 of white tissue-culture treated 384-well plates containing 0.25 μL of test compound dissolved in 100% DMSO. Fifty microliters of Media II is added to wells in column 24. The plates are incubated at 37° C. (5% CO2) for 24 hours, then 5 μL of Alamar Blue reagent (Trek Diagnostics, Cat #00-100) is added to each well. Plates are then incubated an additional two hours at 37° C., 5% CO2 and then one hour at room temperature. […] After the fluorescence is measured, 25 μL of luciferase substrate (Steady-Glo, Promega) is added to each well. The plates are incubated for fifteen minutes at room temperature, after which the luminescence is read on a PheraStar (BMG Labtech) plate reader.
Rifampicin (10 μM), a well-known agonist of PXR, is included in each plate as an internal standard and positive control. The data is then expressed as percent control (% CTRL), where the control signal is the signal from the 10 μM rifampicin and the blank signal is that from the DMSO vehicle. % CTRL=((Compound signal−Blank signal)/(Control signal−Blank signal))*100
The EC50 is defined as the concentration corresponding to half of the maximal response derived from the fitted 20-point curve as determined using a four-parameter logistic regression model. Additionally, compounds may also be reported as EC20 or EC60.

| Compound | PXR activation (in vitro screen, in words) | EC50 (HepG2, relative to 10 μM rifampicin) | PXR EC20 (reported as EC20) |
| --- | --- | --- | --- |
| CC(C)[C@@H](NC(=O)[C@@H]1CCC(F)(F)C1)C(=O)N1CC[C@](O)(c2ccc(Cl)cc2)[C@@](C)(O)C1 [Compound I, (R)—N—((R)-1-((3S,4S)-4-(4-chlorophenyl)-3,4-dihydroxy-3-methylpiperidin-1-yl)-3-methyl-1-oxobutan-2-yl)-3,3-difluorocyclopentanecarboxamide] | not a significant activator | > 50 µM | – |
| CC(C)COC(=O)N[C@@H](C(=O)N1CC[C@](O)(c2ccc(Cl)cc2)C(C)(C)C1)C(C)C [Example 1083] | – | – | 1.9 (EC20) μM |
